{"source": "ChEMBL document CHEMBL5352493", "about": "“Dual inhibitors of ASK1 and PDK1 kinases: Design, synthesis, molecular docking and mechanism studies of N-benzyl pyridine-2-one containing derivatives as anti-fibrotic agents” (Eur J Med Chem, 2023)", "key": {"HFL1 [1]": {"test_system": "HFL1", "assay": "Induction of apoptosis in HLF1 cells assessed as late apoptotic cells at 22.5 uM incubated for 24 hrs measured by annexinV-FITC/PI based flow cytometric analysis (reference value: 0.08%)", "type": "functional, Homo sapiens"}, "HFL1 [2]": {"test_system": "HFL1", "assay": "Induction of apoptosis in HLF1 cells assessed as late apoptotic cells at 15 uM incubated for 24 hrs measured by annexinV-FITC/PI based flow cytometric analysis (reference value: 0.08%)", "type": "functional, Homo sapiens"}, "[3]": {"assay": "Antiproliferative against rat NRK-49F cells measured after 48 hrs by CCK8 assay", "type": "toxicity, cell-based"}, "[4]": {"assay": "Antiproliferative against HLF1 cells measured after 48 hrs by CCK8 assay", "type": "toxicity, cell-based", "details": "human, HFL1 cells (description prints HLF1)"}, "HFL1 [5]": {"test_system": "HFL1", "assay": "Induction of apoptosis in HLF1 cells assessed as decrease in antiapoptotic Bcl-2 protein at 7.5 to 15 uM for 24 hrs by Western blotting analysis", "type": "functional, cell-based", "details": "Homo sapiens, dose 7.5-15 µM"}, "HFL1 [6]": {"test_system": "HFL1", "assay": "Induction of apoptosis in HLF1 cells assessed as necrotic cells at 15 uM incubated for 24 hrs measured by annexinV-FITC/PI based flow cytometric analysis (reference value: 0%)", "type": "functional, Homo sapiens"}, "[7]": {"assay": "Antiproliferative against rat HSC-T6 cells measured after 48 hrs by CCK8 assay", "type": "toxicity, cell-based"}, "HFL1 [8]": {"test_system": "HFL1", "assay": "Induction of apoptosis in HLF1 cells assessed as viable cells at 22.5 uM incubated for 24 hrs measured by annexinV-FITC/PI based flow cytometric analysis (reference value: 88.3%)", "type": "functional", "details": "Homo sapiens, read-out: Activity"}, "HFL1 [9]": {"test_system": "HFL1", "assay": "Induction of apoptosis in HLF1 cells assessed as viable cells at 7.5 uM incubated for 24 hrs measured by annexinV-FITC/PI based flow cytometric analysis (reference value: 88.3%)", "type": "functional", "details": "Homo sapiens, read-out: Activity"}, "HFL1 [10]": {"test_system": "HFL1", "assay": "Antifibrotic activity in TGF-beta1 induced HLF1 cells assessed as decrease in phosphorylated smad2 level measured at 7.5 to 15 uM after 24 hrs by Western blotting analysis", "type": "functional, cell-based", "details": "Homo sapiens, dose 7.5-15 µM"}, "HFL1 [11]": {"test_system": "HFL1", "assay": "Downregulation of phosphorylated ASK1 in TGF-beta1 induced HFL1 cells at 7.5 to 15 uM for 24 hrs by Western blotting analysis", "type": "functional, cell-based", "details": "Homo sapiens, dose 7.5-15 µM"}, "HFL1 [12]": {"test_system": "HFL1", "assay": "Induction of apoptosis in HLF1 cells assessed as necrotic cells at 7.5 uM incubated for 24 hrs measured by annexinV-FITC/PI based flow cytometric analysis (reference value: 0%)", "type": "functional, Homo sapiens"}, "HFL1 [13]": {"test_system": "HFL1", "assay": "Downregulation of phosphorylated p38 in TGF-beta1 induced HFL1 cells at 7.5 to 15 uM for 24 hrs by Western blotting analysis", "type": "functional, cell-based", "details": "Homo sapiens, dose 7.5-15 µM"}, "HFL1 [14]": {"test_system": "HFL1", "assay": "Downregulation of phosphorylated PDK1 in TGF-beta1 induced HFL1 cells at 7.5 to 15 microM for 24 hrs by Western blotting analysis", "type": "functional, cell-based", "details": "Homo sapiens, dose 7.5-15 µM"}, "HFL1 [15]": {"test_system": "HFL1", "assay": "Antifibrotic activity in TGF-beta1 induced HLF1 cells assessed as decrease in collagen - I expression level measured at 7.5 to 15 uM after 24 hrs by Western blotting analysis", "type": "functional, cell-based", "details": "Homo sapiens, dose 7.5-15 µM"}, "[16]": {"assay": "Antiproliferative against human BEAS-2B cells measured after 48 hrs by CCK8 assay", "type": "toxicity, cell-based"}, "HFL1 [17]": {"test_system": "HFL1", "assay": "Induction of apoptosis in HLF1 cells assessed as early apoptotic cells at 22.5 uM incubated for 24 hrs measured by annexinV-FITC/PI based flow cytometric analysis (reference value: 11.6%)", "type": "functional, Homo sapiens"}, "[18]": {"target": "T1, Mitogen-activated protein kinase kinase kinase 5 (Homo sapiens, UniProt Q99683)", "T1 sequence (Q99683 whole entry)": "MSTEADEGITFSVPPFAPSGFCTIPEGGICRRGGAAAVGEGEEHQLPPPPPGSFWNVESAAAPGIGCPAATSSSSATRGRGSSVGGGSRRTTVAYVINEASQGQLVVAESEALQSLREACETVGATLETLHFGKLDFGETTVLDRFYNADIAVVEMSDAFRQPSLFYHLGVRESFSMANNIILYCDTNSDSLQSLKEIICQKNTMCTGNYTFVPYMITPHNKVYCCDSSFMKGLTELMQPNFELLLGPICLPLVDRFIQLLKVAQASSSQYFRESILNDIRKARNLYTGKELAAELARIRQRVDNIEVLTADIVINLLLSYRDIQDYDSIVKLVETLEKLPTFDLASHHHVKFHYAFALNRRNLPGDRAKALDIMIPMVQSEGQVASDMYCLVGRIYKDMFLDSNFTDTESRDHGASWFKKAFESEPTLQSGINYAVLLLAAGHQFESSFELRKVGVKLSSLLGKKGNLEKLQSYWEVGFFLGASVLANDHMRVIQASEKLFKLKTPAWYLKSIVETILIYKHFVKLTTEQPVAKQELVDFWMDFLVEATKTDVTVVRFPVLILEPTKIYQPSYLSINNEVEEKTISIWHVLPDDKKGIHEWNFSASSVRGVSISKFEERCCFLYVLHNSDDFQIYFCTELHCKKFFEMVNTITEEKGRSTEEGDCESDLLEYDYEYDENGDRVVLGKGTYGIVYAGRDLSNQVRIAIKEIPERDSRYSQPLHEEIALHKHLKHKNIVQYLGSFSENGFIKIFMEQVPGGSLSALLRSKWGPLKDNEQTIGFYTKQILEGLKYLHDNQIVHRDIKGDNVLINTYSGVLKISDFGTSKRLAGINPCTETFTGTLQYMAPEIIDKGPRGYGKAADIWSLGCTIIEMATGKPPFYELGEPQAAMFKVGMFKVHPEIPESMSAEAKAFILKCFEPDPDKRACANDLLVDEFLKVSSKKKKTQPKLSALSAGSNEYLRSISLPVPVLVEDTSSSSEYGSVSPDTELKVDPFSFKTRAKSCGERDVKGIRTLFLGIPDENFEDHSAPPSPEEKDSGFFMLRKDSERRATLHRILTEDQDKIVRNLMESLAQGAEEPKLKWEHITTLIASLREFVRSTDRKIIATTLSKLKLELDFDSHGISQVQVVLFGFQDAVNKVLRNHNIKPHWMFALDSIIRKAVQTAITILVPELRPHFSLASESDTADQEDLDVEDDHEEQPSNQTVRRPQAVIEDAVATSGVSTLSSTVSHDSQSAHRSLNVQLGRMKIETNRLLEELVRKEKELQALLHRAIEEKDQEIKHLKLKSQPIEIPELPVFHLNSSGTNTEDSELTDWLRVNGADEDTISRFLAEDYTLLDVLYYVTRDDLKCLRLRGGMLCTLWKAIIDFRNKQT", "assay": "Inhibition of human recombinant ASK1 using MBP as substrate preincubated for 1 hr followed by reagent addition incubated for 40 mins by ATP-Glo kinase assay"}, "HFL1 [19]": {"test_system": "HFL1", "assay": "Downregulation of phosphorylated Akt in TGF-beta1 induced HFL1 cells at 7.5 microM for 24 hrs by Western blotting analysis", "type": "functional, cell-based", "details": "Homo sapiens"}, "HFL1 [20]": {"test_system": "HFL1", "assay": "Antifibrotic activity in TGF-beta1 induced HLF1 cells assessed as decrease in alpha SMA expression level measured at 7.5 to 15 uM after 24 hrs by Western blotting analysis", "type": "functional, cell-based", "details": "Homo sapiens, dose 7.5-15 µM"}, "HFL1 [21]": {"test_system": "HFL1", "assay": "Induction of apoptosis in HLF1 cells assessed as early apoptotic cells at 15 uM incubated for 24 hrs measured by annexinV-FITC/PI based flow cytometric analysis (reference value: 11.6%)", "type": "functional, Homo sapiens"}, "HFL1 [22]": {"test_system": "HFL1", "assay": "Induction of apoptosis in HLF1 cells assessed as viable cells at 15 uM incubated for 24 hrs measured by annexinV-FITC/PI based flow cytometric analysis (reference value: 88.3%)", "type": "functional", "details": "Homo sapiens, read-out: Activity"}, "HFL1 [23]": {"test_system": "HFL1", "assay": "Induction of apoptosis in HLF1 cells assessed as necrotic cells at 22.5 uM incubated for 24 hrs measured by annexinV-FITC/PI based flow cytometric analysis (reference value: 0%)", "type": "functional, Homo sapiens"}, "HFL1 [24]": {"test_system": "HFL1", "assay": "Induction of apoptosis in HLF1 cells assessed as late apoptotic cells at 7.5 uM incubated for 24 hrs measured by annexinV-FITC/PI based flow cytometric analysis (reference value: 0.08%)", "type": "functional, Homo sapiens"}, "HFL1 [25]": {"test_system": "HFL1", "assay": "Induction of apoptosis in HLF1 cells assessed as early apoptotic cells at 7.5 uM incubated for 24 hrs measured by annexinV-FITC/PI based flow cytometric analysis (reference value: 11.6%)", "type": "functional, Homo sapiens"}, "HFL1 [26]": {"test_system": "HFL1", "assay": "Antifibrotic activity in TGF-beta1 induced HLF1 cells assessed as decrease in phosphorylated smad3 level measured at 7.5 to 15 uM after 24 hrs by Western blotting analysis", "type": "functional, cell-based", "details": "Homo sapiens, dose 7.5-15 µM"}, "HFL1 [27]": {"test_system": "HFL1", "assay": "Downregulation of phosphorylated JNK in TGF-beta1 induced HFL1 cells at 7.5 to 15 uM for 24 hrs by Western blotting analysis", "type": "functional, cell-based", "details": "Homo sapiens, dose 7.5-15 µM"}}, "note": "Active and inactive are the calls of the source. The calls are words filed in the database; no cut-off is given here.", "data": [{"smiles": "O=C(Nc1cccc(-c2nncn2C2CC2)n1)c1cc(-c2cnn(C3CC3)c2)cn(Cc2ccccc2F)c1=O", "values": [{"measurement": "Activity", "setting": "HFL1 [1]", "value": 0.104, "unit": "%"}, {"measurement": "Activity", "setting": "HFL1 [2]", "value": 0.079, "unit": "%"}, {"measurement": "IC50 at 48 h", "setting": "[3]", "value": 21.1, "unit": "µM"}, {"measurement": "IC50 at 48 h", "setting": "[4]", "value": 15.2, "unit": "µM"}, {"measurement": "Activity", "setting": "HFL1 [5]", "value": "Active"}, {"measurement": "Activity", "setting": "HFL1 [6]", "value": 0, "unit": "%"}, {"measurement": "IC50 at 48 h", "setting": "[7]", "value": 35.5, "unit": "µM"}, {"measurement": "viability at 22.5 µM", "setting": "HFL1 [8]", "value": 69.6, "unit": "%"}, {"measurement": "viability at 7.5 µM", "setting": "HFL1 [9]", "value": 71.2, "unit": "%"}, {"measurement": "Activity", "setting": "HFL1 [10]", "value": "Active"}, {"measurement": "Activity", "setting": "HFL1 [11]", "value": "Active"}, {"measurement": "Activity", "setting": "HFL1 [12]", "value": 0, "unit": "%"}, {"measurement": "Activity", "setting": "HFL1 [13]", "value": "Active"}, {"measurement": "Activity", "setting": "HFL1 [14]", "value": "Dose-Dependent Effect"}, {"measurement": "Activity", "setting": "HFL1 [15]", "value": "Dose-Dependent Effect"}, {"measurement": "IC50 at 48 h", "setting": "[16]", "value": 36, "unit": "µM"}, {"measurement": "Activity", "setting": "HFL1 [17]", "value": 30.3, "unit": "%"}, {"measurement": "IC50", "setting": "[18]", "value": 0.00173, "unit": "µM"}, {"measurement": "Activity", "setting": "HFL1 [19]", "value": "Active"}, {"measurement": "Activity", "setting": "HFL1 [20]", "value": "Dose-Dependent Effect"}, {"measurement": "Activity", "setting": "HFL1 [21]", "value": 32.3, "unit": "%"}, {"measurement": "viability at 15 µM", "setting": "HFL1 [22]", "value": 67.6, "unit": "%"}, {"measurement": "Activity", "setting": "HFL1 [23]", "value": 0.015, "unit": "%"}, {"measurement": "Activity", "setting": "HFL1 [24]", "value": 0.083, "unit": "%"}, {"measurement": "Activity", "setting": "HFL1 [25]", "value": 28.7, "unit": "%"}, {"measurement": "Activity", "setting": "HFL1 [26]", "value": "Active"}, {"measurement": "Activity", "setting": "HFL1 [27]", "value": "Active"}]}]}
